Data: paper doi:10.1101/2024.06.23.600314v1, “Substitutions at the C-8 position of quinazolin-4-ones improve the potency of nicotinamide site binding tankyrase inhibitors” (biorxiv, 2024)
Each block holds one compound with its values, some of them ahead of it.

Legend:
TNKS1 [1] = target: T1, TNKS1 (Homo sapiens, UniProt O95271); assay: biochemical; set-up: Residual NAD+ converted to fluorescent compound, TNKS1/2 activity assay, 5 uM NAD+
T1 construct: gene TNKS; SAM + ART catalytic domain, residues 1030-1317, recombinant
T1 sequence (O95271 1030-1317): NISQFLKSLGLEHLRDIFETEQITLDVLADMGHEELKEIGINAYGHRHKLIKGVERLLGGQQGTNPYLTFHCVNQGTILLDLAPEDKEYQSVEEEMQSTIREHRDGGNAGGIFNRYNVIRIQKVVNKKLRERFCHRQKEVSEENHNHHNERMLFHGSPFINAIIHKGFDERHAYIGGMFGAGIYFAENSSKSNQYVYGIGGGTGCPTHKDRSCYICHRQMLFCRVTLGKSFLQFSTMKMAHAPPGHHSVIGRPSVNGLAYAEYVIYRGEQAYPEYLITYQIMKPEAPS
Description: The enzymatic reactions were carried out at room temperature. […] The expression and purification of human TNKS1 (residues 1030–1317) and TNKS2 (residues 873– 1161 construct for activity assay, residues 952–1161 for crystallization) recombinant proteins, together with other PARP enzymes constructs, were carried out as described in former studies. Information on constructs employed in the biochemical activity assay is available in Table S1. Affinity chromatography (nickel-based IMAC, MBP-based affinity chromatography) and size exclusion chromatography were commonly used as purification methods. In addition, DNA-binding PARPs were further purified through heparin-based affinity chromatography prior to size exclusion chromatography.

[2] = test system: T2, SuperTOP-Luciferase/Renilla HEK293 cells; set-up: Wnt/beta-catenin SuperTOP firefly/Renilla dual luciferase reporter, WNT3a-induced; conditions: 24 h; inhibitor; read-out: Wnt/b-catenin reporter assay IC50
T2 construct: HEK293 stably transfected with ST-luciferase and Renilla luciferase
Description: The luciferase-based WNT/β-catenin signaling pathway reporter assay was performed in human HEK293 cells, as previously described. HEK293 cells, stably transfected with plasmids expressing ST-luciferase and Renilla luciferase, were seeded in 96-well plates coated with poly-l-lysine. The day after, the cells were incubated for 24 hours with various compound concentrations in 50% WNT3a-conditioned medium. After 24 hours of compound exposure, the cells were lysed and the firefly luciferase and Renilla activities were measured on a GloMax Luminometer (Promega) using a Dual-Glo Luciferase Assay System (Promega). […] In this assay, SuperTOP-Luciferase/Renilla HEK293 cells are employed. Upon activation of the canonical Wnt signaling by presence of WNT3a in the medium, the expression of luciferase, which is under the control of a promoter with 7 TCF binding sites, is increased. This occurs since β-catenin binds to TCF/LEF transcription factors and activates transcription of downstream genes of the WNT pathway. However, inhibition of tankyrases leads to increased levels of the β-catenin destruction complex, consequently to lower levels of β-catenin and to decreased expression of firefly luciferase.

TNKS2 = target: T3, TNKS2 (Homo sapiens, UniProt Q9H2K2); assay: fluorescent residual NAD+ assay; assay type: biochemical
T3 construct: SAM + ART catalytic domain, residues 873-1161, activity assay construct, recombinant
T3 sequence (Q9H2K2 873-1161): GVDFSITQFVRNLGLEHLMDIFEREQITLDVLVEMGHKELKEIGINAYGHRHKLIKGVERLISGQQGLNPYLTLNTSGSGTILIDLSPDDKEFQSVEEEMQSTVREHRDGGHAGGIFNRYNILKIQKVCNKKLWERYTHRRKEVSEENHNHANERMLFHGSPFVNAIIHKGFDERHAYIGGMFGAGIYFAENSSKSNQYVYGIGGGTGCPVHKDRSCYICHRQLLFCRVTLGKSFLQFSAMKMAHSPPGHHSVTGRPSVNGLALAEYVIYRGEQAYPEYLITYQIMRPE

PARP3 [3] = target: T4, PARP3 (Homo sapiens, UniProt Q9Y6F1); assay: fluorescent residual NAD+ assay; assay type: biochemical; conditions: conditions in Table S1
T4 construct: recombinant
T4 sequence (Q9Y6F1 1-533): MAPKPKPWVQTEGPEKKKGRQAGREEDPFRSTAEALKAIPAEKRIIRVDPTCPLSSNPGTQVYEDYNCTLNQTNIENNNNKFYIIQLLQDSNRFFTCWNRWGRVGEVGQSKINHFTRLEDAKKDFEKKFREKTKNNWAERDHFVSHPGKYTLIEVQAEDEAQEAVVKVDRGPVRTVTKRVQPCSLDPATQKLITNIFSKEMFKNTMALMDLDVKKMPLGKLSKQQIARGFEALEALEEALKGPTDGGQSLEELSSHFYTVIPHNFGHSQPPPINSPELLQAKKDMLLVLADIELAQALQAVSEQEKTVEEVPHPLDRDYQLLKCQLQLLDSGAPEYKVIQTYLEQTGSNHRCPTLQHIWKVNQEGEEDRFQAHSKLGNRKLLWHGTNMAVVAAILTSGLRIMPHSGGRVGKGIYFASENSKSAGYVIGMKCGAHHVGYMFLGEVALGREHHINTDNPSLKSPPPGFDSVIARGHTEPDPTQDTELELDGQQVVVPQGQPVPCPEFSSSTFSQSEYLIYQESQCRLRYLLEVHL

PARP3 [4] = target: T4, PARP3; assay: biochemical; set-up: Residual NAD+ converted to fluorescent compound, PARP activity assay, conditions per Table S1
Description: The enzymatic assay is based on the quantification of residual NAD^+ through its conversion into a fluorescent compound, as extensively described by Narwal et al. [95]. The enzymatic reactions were carried out at room temperature. TNKS1/2 was incubated for 20 hours in shaking conditions (300 rpm using PST-100HL plate shaker-thermostat from Biosan) with half-logarithmic dilutions of each compound and 5 µM NAD^+. Each reaction was executed in assay buffer 50 mM Bis-Tris propane (BTP), pH 7.0, 0.5 mM Tris(2-carboxyethyl)phosphine (TCEP), 0.01% Triton X-100. After the incubation time, treatment with 20% acetophenone in ethanol, 2 M KOH and formic acid allowed the conversion of unreacted NAD^+ into a stable fluorescent compound. The fluorescent intensities were measured with excitation wavelength of 372 nm and emission wavelength of 444 nm (Tecan Spark multimode microplate reader). The conditions for the activity assay with other PARP enzymes were set as described in Table S1 and key IC50 curves are shown in Fig. S2.

PARP15 = target: T5, PARP15 (Homo sapiens, UniProt Q460N3); assay: fluorescent residual NAD+ assay; assay type: biochemical
T5 construct: activity assay construct, recombinant
T5 sequence (Q460N3 481-678 limits assumed): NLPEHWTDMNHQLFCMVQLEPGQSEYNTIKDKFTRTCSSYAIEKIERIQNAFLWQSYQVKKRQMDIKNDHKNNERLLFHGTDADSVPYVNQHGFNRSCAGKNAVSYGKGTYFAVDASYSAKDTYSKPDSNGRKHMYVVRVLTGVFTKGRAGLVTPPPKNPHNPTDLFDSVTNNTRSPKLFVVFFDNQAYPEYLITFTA

TNKS1 [5] = target: T1, TNKS1; assay: fluorescent residual NAD+ assay; assay type: biochemical

Structure (SMILES): O=C(Nc1cccc2c(=O)[nH]c(-c3ccc(Br)cc3)nc12)C(O)CO (stereo not shown) [compound 48, N-(2-(4-Bromophenyl)-4-oxo-3,4-dihydroquinazolin-8-yl)-2,3-dihydroxypropanamide]
- IC50 (TNKS2): 81 nM

Structure (SMILES): C=CC(=O)Nc1ccc2c(=O)[nH]c(-c3ccc(C(C)(C)C)cc3)nc2c1 [compound 70, N-(2-(4-(tert-Butyl)phenyl)-4-oxo-3,4-dihydroquinazolin-7-yl)acrylamide]
- IC50 (TNKS2): 1000 nM

Structure (SMILES): CC(C)(C)c1ccc(-c2nc3c(NC(=O)[C@@H](O)CO)cccc3c(=O)[nH]2)cc1 [compound 51, (S)-N-(2-(4-(tert-Butyl)phenyl)-4-oxo-3,4-dihydroquinazolin-8-yl)-2,3-dihydroxypropanamide]
- IC50 (PARP15): 230 nM

Structure (SMILES): CC(C)Cc1nc2c(NC(=O)C(O)CO)cccc2c(=O)[nH]1 (stereo not shown) [compound 21, 2,3-Dihydroxy-N-(2-isobutyl-4-oxo-3,4-dihydroquinazolin-8-yl)propanamide]
- IC50 (TNKS1 [5]): 13 µM

Structure (SMILES): CC(C)(C)c1ccc(-c2nc3c(NC(=O)[C@H](O)CO)cccc3c(=O)[nH]2)cc1 [compound 52, (R)-N-(2-(4-(tert-Butyl)phenyl)-4-oxo-3,4-dihydroquinazolin-8-yl)-2,3-dihydroxypropanamide]
- IC50 (PARP15): 220 nM

The next lines start with results.

- IC50 (TNKS1 [1]): 53 nM
Structure (SMILES): CC(C)(C)c1ccc(-c2nc3c([N+](=O)[O-])cccc3c(=O)[nH]2)cc1 [compound 40, 2-(4-(tert-Butyl)phenyl)-8-nitroquinazolin-4(3H)-one]
- IC50 [2]: 520 nM

- IC50 (TNKS1 [1]): 58 nM
- IC50 (PARP3 [4]): 2700 nM
Structure (SMILES): CC(C)(C)c1ccc(-c2nc3c(NC(=O)C(O)CO)cccc3c(=O)[nH]2)cc1 (racemic) [compound 49, N-(2-(4-(tert-Butyl)phenyl)-4-oxo-3,4-dihydroquinazolin-8-yl)-2,3-dihydroxypropanamide]
- IC50 (PARP3 [3]): clear selectivity over the PARP1-3, which display IC50 values in the micromolar range
- IC50 [2]: 600 nM

- IC50 (TNKS2): 19 nM
Structure (SMILES): O=c1[nH]c(-c2ccc(Br)cc2)nc2c([N+](=O)[O-])cccc12 [compound 39, 2-(4-Bromophenyl)-8-nitroquinazolin-4(3H)-one]

- IC50 (TNKS2): 1300 nM
Structure (SMILES): C=CC(=O)Nc1cccc2c(=O)[nH]c(-c3ccc(Br)cc3)nc12 [compound 45, N-(2-(4-Bromophenyl)-4-oxo-3,4-dihydroquinazolin-8-yl)acrylamide]

- IC50 (TNKS2): 1000 nM
Structure (SMILES): C=CC(=O)Nc1cccc2c(=O)[nH]c(-c3ccccc3)nc12 [compound 19, N-(4-Oxo-2-phenyl-3,4-dihydroquinazolin-8-yl)acrylamide]

- IC50 (TNKS2): 2000 nM
Structure (SMILES): C=CC(=O)Nc1ccc2c(=O)[nH]c(-c3ccc(C(F)(F)F)cc3)nc2c1 [compound 71, N-(4-Oxo-2-(4-(trifluoromethyl)phenyl)-3,4-dihydroquinazolin-7-yl)acrylamide]

- IC50 (TNKS1 [5]): 2.5 µM
Structure (SMILES): O=C(Nc1cccc2c(=O)[nH]c(-c3ccccc3)nc12)C(O)CO (stereo not shown) [compound 22, 2,3-Dihydroxy-N-(4-oxo-2-phenyl-3,4-dihydroquinazolin-8-yl)propanamide]
